The record followed here is ChEMBL document CHEMBL1158950, “New Sesquiterpenes from Xanthium catharticum” (J Nat Prod, 1991).

The subject of one data set is Bacillus subtilis. Kind of data set: Antimicrobial activity against Bacillus subtilis. Type of data set: functional, organism-based.
The next data set has as its system Staphylococcus aureus. As to the kind of experiment: Antimicrobial activity against Staphylococcus aureus. Type of data set: functional, organism-based.
The test system of data set [1] is Agrobacterium tumefaciens. As to the kind of experiment: Antitumor activity against Agrobacterium tumefaciens-induced crown gall tumor by potato disk assay. Format: functional.
The next data set concerns Artemia salina. Kind of data set: Toxicity in Artemia salina. Format: organism-based. Particulars: in vivo.

Calls of active or inactive are those of the source. No cut-off for these calls is given here.

For `CC(=O)/C=C/C1=CC[C@@H]2[C@H](C)C(=O)O[C@@H]2C[C@@H]1C`, the result in the data set on Bacillus subtilis and in the data set on Staphylococcus aureus was inactive.
As for `C=C1C(=O)O[C@@H]2CC(=C)[C@@H]3CC=C(C)[C@@H]3C[C@H]12` [GUAIANOLIDE ZINIOLIDE], the “inhibition (INH)” value in data set [1] is 49%. For the same compound, the LC50 – broadly, the concentration that kills 50% of the test population – in the data set with Artemia salina is listed as 14 ppm.
